In patent US8497376B2, “Inhibitors of c-fms kinase” (Janssen Pharmaceutica N.V., priority 2007, dated 2013) one finds IC50 data, which are given here for 18 molecules.

SMILES strings stand for the structures. Counter-ions that a name gives are not always drawn. Like-named read-outs stand apart in the source and are kept apart here.

The target of one assay is c-fms (Homo sapiens (Human), UniProt P07333). As to the kind of experiment: Autophosphorylation fluorescence polarization competition immunoassay for c-fms inhibition. In kind it is biochemical. To be noted: 10 nM c-fms, 1 mM ATP; average of three independent measurements. How it is done: The assay buffer used was 100 mM 4-(2-hydroxyethyl)piperazine1-ethanesulfonic acid (HEPES), pH 7.5, 1 mM 1,4-dithio-DL-threitol (DTT), 0.01% (v/v) Tween-20. Compounds were diluted in assay buffer containing 4% dimethylsulfoxide (DMSO) just prior to the assay. […] The kinase reaction was initiated by adding 2 μL of 5 mM ATP (Sigma) in assay buffer. The final concentrations in the assay were 10 nM c-fms, 1 mM ATP, 5 mM MgCl2, 2% DMSO. Control reactions were ran in each plate: in positive and negative control wells, assay buffer (made 4% in DMSO) was substituted for the compound; in addition, positive control wells received 1.2 μL of 50 mM ethylenediaminetetraaceticacid (EDTA). The plates were incubated at room temperature for 45 min. At the end of the incubation, the reaction was quenched with 1.2 μL of 50 mM EDTA (EDTA was not added to the positive control wells at this point; see above). Following a 5-min incubation, each well received 10 μL of a 1:1:3 mixture of anti-phosphotyrosine antibody, 10×, PTK green tracer, 10× (vortexed), FP dilution buffer, respectively (all from PanVera, cat. # P2837). The plate was covered, incubated for 30 min at room temperature and the fluorescence polarization was read on the Analyst. The instrument settings were: 485 nm excitation filter; 530 nm emission filter; Z height: middle of well; G factor: 0.93. […] The reported IC50 values are averages of three independent measurements.

For assay [1], the system named is mouse bone-marrow derived macrophages. The assay can be described thus: CSF-1-driven mouse bone-marrow derived macrophages assay (BrDU incorporation). In kind it is cell-based. To be noted: CSF-1-driven proliferation, 30 hrs culture. As to the method:
Macrophages were derived by culturing mouse bone marrow in alpha-MEM supplemented with 10% FCS and 50 ng/ml recombinant mouse CSF-1 in bacteriologic dishes. On the sixth day, macrophages were detached from dishes, washed, and resuspended to 0.05 million cells/ml in alpha-MEM containing 10% FCS. One hundred ul of cell suspension were distributed per well into 96 well culture plates. Wells were further supplemented with the addition of 50 ul media containing 15 ng/ml CSF-1, 3 uM Indomethacin, and 3× of a dilution series of test compounds. The cells were cultured for 30 hrs at 37 degrees and 5% CO2. During the final six hours, cultures were supplemented with an additional 30 ul of media containing a 1:500 dilution of bromodeoxyuridine (BrDU). At the end of the culture period, the plates were spun at 1000 RPM for 1 minute and 130 ul of media was removed with a pipet and replaced with 150 ul of fixative solution for 1 hour@room temperature. The fixative was then dispelled from the plates and the plates allowed to air dry. Incorporation of BrDU into the fixed, dried cells was quantified using a specific ELISA.

Sequence of c-fms (P07333 20-972): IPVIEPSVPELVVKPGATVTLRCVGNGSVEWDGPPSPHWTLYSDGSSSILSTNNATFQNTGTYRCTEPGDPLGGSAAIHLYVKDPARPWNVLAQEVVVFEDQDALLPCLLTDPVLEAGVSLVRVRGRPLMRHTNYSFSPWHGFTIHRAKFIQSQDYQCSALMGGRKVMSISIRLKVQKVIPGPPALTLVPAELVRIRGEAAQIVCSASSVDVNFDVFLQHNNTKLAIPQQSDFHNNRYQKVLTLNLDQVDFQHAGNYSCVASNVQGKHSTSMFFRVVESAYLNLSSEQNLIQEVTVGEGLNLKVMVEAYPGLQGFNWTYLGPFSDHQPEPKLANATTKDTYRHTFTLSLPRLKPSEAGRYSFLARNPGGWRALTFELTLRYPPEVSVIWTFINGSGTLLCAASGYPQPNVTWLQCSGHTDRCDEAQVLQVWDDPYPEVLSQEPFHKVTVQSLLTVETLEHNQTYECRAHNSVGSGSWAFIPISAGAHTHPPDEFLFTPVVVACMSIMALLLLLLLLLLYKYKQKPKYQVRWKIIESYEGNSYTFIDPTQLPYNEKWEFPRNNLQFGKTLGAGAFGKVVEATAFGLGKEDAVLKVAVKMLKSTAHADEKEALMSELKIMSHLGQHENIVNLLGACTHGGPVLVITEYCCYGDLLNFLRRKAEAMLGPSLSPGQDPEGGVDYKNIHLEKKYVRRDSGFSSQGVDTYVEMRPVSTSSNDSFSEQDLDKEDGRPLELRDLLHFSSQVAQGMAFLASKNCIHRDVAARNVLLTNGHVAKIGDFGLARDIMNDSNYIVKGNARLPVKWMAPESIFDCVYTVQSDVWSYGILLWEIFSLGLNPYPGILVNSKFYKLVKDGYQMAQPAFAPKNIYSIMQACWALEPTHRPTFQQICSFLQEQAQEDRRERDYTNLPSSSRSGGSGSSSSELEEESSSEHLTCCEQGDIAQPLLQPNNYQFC

Turning to `C[C@]12CC(c3ccc(NC(=O)c4nc(C#N)c[nH]4)c(C4=CCCCC4)n3)C[C@](C)(O1)[C@H](O)[C@@H]2O` (stereo partly drawn) [Example 19, 4-Cyano-1H-imidazole-2-carboxylic acid[2-cyclohex-1-enyl-6-[(3-exo)-(6-exo,7-exo-dihydroxy-1,5-dimethyl-8-oxa-bicyclo[3.2.1]oct-3-yl]-pyridin-3-yl]-amidetrifluoroacetic acid salt and 4-Cyano-1H-imidazole-2-carboxylic acid[2-cyclohex-1-enyl-6-[(3-endo)-(6-exo,7-exo-dihydroxy-1,5-dimethyl-8-oxa-bicyclo[3.2.1]oct-3-yl]-pyridin-3-yl]-amidetrifluoroacetic acid salt], the IC50 (in general, the concentration needed to halve the response being measured) at c-fms came to 2.9 nM; in assay [1] (Mus musculus, BMDM), 27 nM.

Regarding `CC1(C)CC=C(c2cc(C3=C[C@@H]4C=C[C@H](C3)O4)ccc2NC(=O)c2ncc(C#N)[nH]2)CC1` [Example 26, N-(4-(8-oxabicyclo[3.2.1]octa-2,6-dien-3-yl)-2-(4,4-dimethylcyclohex-1-enyl)phenyl)-4-cyano-1H-imidazole-2-carboxamide (A) and N-(4-(8-oxabicyclo[3.2.1]octa-3,6-dien-3-yl)-2-(4,4dimethylcyclohex-1-enyl)phenyl)-4cyano-1H-imidazole-2-carboxamide (B)], the IC50 on c-fms came out at 7.1 nM; in assay [1] (read-out: BMDM IC50), 59 nM.

In the case of `CC1(C)CC=C(c2cc(C3CC(C)(C)S(=O)(=O)C(C)(C)C3)ccc2NC(=O)c2nc(C#N)c[nH]2)CC1` [Example 22, 4-Cyano-1H-imidazole-2-carboxylic acid[2-(4,4-dimethyl-cyclohex-1-enyl)-4-(2,2,6,6-tetramethyl-1,1-dioxo-hexahydro-1λ^6-thiopyran-4-yl)-phenyl]-amide], the IC50 stood at 2 nM on c-fms and 3.6 nM in assay [1] (Mus musculus, BMDM).

In the case of `CC1(C)CC(c2ccc(NC(=O)c3nc(C#N)c[nH]3)c(C3=CCCCC3)n2)CC(C)(C)O1` [Example 16, 4-Cyano-1H-imidazole-2-carboxylic acid[2-cyclohex-1-enyl-6-(2,2,6,6-tetramethyl-tetrahydro-pyran-4-yl)-pyridin-3-yl]-amide], the IC50 at c-fms was determined as 1.4 nM; in assay [1] (Mus musculus, BMDM), 8.2 nM.

Take `COC[C@@]12C=C[C@@](COC)(C[C@](O)(c3ccc(NC(=O)c4nc(C#N)c[nH]4)c(C4=CCC(C)(C)CC4)c3)C1)O2` [Example 1, 4-Cyano-1H-imidazole-2-carboxylic acid[2-(4,4-dimethyl-cyclohex-1-enyl)-4-[(3-exo)-3-hydroxy-1,5-bis-methoxymethyl-8-oxa-bicyclo[3.2.1]oct-6-en-3-yl]-phenyl]-amide]: the IC50 at c-fms was 0.86 nM; in assay [1] (Mus musculus, BMDM), 3.2 nM.

Take `CC1(C)CC=C(c2nc([C@H]3C[C@@]4(C)O[C@@](C)(C3)[C@@H]3OC(C)(C)O[C@@H]34)ccc2NC(=O)c2nc(C#N)c[nH]2)CC1` [Example 17, 4-Cyano-1H-imidazole-2-carboxylic acid[6-[(3-exo)-6-exo,7-exo-(isopropylidinedioxy)-1,5-dimethyl-8-oxa-bicyclo[3.2.1]oct-3-yl]-2-(4,4-dimethyl-cyclohex-1-enyl)-pyridin-3-yl]-amide]: the IC50 on c-fms was determined as 4.6 nM; in assay [1] (Mus musculus, BMDM) it was 37 nM.

Take `COC[C@@]12CC[C@@](COC)(C[C@H](c3ccc(NC(=O)c4nc(C#N)c[nH]4)c(C4=CCC(C)(C)CC4)c3)C1)O2` [Example 7, 4-Cyano-1H-imidazole-2-carboxylic acid[4-((3-exo)-1,5-bis-methoxymethyl-8-oxa-bicyclo[3.2.1]oct-3-yl)-2-(4,4-dimethyl-cyclohex-1-enyl)-phenyl]-amide]: the half-inhibitory concentration (IC50) on c-fms came to 2 nM; in assay [1] (Mus musculus, BMDM), 3.3 nM.

`CC1(C)CC=C(c2cc([C@@]3(O)C[C@]4(C)C=C[C@](C)(C3)O4)ccc2NC(=O)c2nc(C#N)c[nH]2)CC1` [Example 9, 4-Cyano-1H-imidazole-2-carboxylic acid[2-(4,4-dimethyl-cyclohex-1-enyl)-4-((3-exo)-3-hydroxy-1,5-dimethyl-8-oxa-bicyclo[3.2.1]oct-6-en-3-yl)-phenyl]-amide]: the IC50 is 1.1 nM on c-fms and 4.8 nM in assay [1] (Mus musculus, BMDM).

`C[C@@H]1C2(C)C=C[C@@](C)(O2)[C@H](C)[C@@]1(O)c1ccc(NC(=O)c2nc(C#N)c[nH]2)c(C2=CCC(C)(C)CC2)c1` [Example 30, 4-Cyano-N-(2-(4,4dimethylcyclohex-1-enyl)-4-[(3-exo)-3-hydroxy-(2-endo,4-endo-dimethyl)-1,5-dimethyl-8-oxabicyclo[3.2.1]oct-6-en-3-yl)phenyl)-1H-imidazole-2-carboxamide] showed an IC50 on c-fms of 99 nM.

On to `C[C@@H]1C2C=C[C@@H](O2)[C@H](C)[C@@]1(O)c1ccc(NC(=O)c2nc(C#N)c[nH]2)c(C2=CCC(C)(C)CC2)c1` [Example 28], for which the IC50 is 16 nM at c-fms and 69 nM in assay [1] (Mus musculus, BMDM).

The molecule `CC1(C)CC=C(c2cc([C@]3(O)C[C@@]4(CO)C=C[C@@](CO)(C3)O4)ccc2NC(=O)c2nc(C#N)c[nH]2)CC1` [Example 2, 4-Cyano-1H-imidazole-2-carboxylic acid[2-(4,4-dimethyl-cyclohex-1-enyl)-4-((3-exo)-3-hydroxy-1,5-bis-hydroxymethyl-8-oxa-bicyclo[3.2.1]oct-6-en-3-yl)-phenyl]-amide] yielded an IC50 in assay [1] (Mus musculus, BMDM) of 37 nM.

In the case of `CC1(C)CC=C(c2cc([C@@]3(O)C[C@]4(CO)CC[C@](CO)(C3)O4)ccc2NC(=O)c2nc(C#N)c[nH]2)CC1` [Example 8, 4-Cyano-1H-imidazole-2-carboxylic acid[2-(4,4-dimethyl-cyclohex-1-enyl)-4-[(3-exo)-3-hydroxy-1,5-bis-hydroxymethyl-8-oxa-bicyclo[3.2.1]oct-3-yl]-phenyl]-amide], the IC50 at c-fms was 0.42 nM; in assay [1] (Mus musculus, BMDM), 41 nM.

Take `COC(=O)N1[C@@]2(C)C=C[C@]1(C)C[C@@](O)(c1ccc(NC(=O)c3nc(C#N)c[nH]3)c(C3=CCC(C)(C)CC3)c1)C2` [Example 10, 3-(3-exo)-[4-[(4-Cyano-1H-imidazole-2-carbonyl)-amino]-3-(4,4dimethyl-cyclohex-1-enyl)-phenyl]-(3-exo)-3-hydroxy-1,5-dimethyl-8-aza-bicyclo[3.2.1]oct-6-ene-8-carboxylic acid methyl ester]: the IC50 at c-fms worked out at 3.5 nM; in assay [1] (Mus musculus, BMDM) it was 40 nM.

For `CC1(C)CC=C(c2cc([C@H]3C[C@]4(CO)CC[C@](CO)(C3)O4)ccc2NC(=O)c2nc(C#N)c[nH]2)CC1` [Example 4, 4-Cyano-1H-imidazole-2-carboxylic acid[4-[(3-exo)-1,5-bis-hydroxymethyl-8-oxa-bicyclo[3.2.1]oct-3-yl]-2-(4,4-dimethyl-cyclohex-1-enyl)-phenyl]-amide], the IC50 came out at 0.72 nM on c-fms and 6.6 nM in assay [1] (Mus musculus, BMDM).

In the case of `CC1(C)CC=C(c2cc([C@@H]3C[C@]4(CO)CC[C@](CO)(C3)O4)ccc2NC(=O)c2nc(C#N)c[nH]2)CC1` [Example 5, 4-Cyano-1H-imidazole-2-carboxylic acid[4-[(3-endo)-1,5-bis-hydroxymethyl-8-oxa-bicyclo[3.2.1]oct-3-yl]-2-(4,4-dimethyl-cyclohex-1-enyl)-phenyl]-amide], the IC50 on c-fms was 0.47 nM; in assay [1] (Mus musculus, BMDM) it was 4.7 nM.

`CC1(C)CC=C(c2cc([C@@H]3C[C@@]4(C)O[C@@](C)(C3)[C@H](O)[C@@H]4O)ccc2NC(=O)c2nc(C#N)c[nH]2)CC1` [Example 13, 4-Cyano-1H-imidazole-2-carboxylic acid[4-(3-endo)-(6-exo,7-exo-dihydroxy-1,5-dimethyl-8-oxa-bicyclo[3.2.1]oct-3-yl)-2-(4,4-dimethyl-cyclohex-1-enyl)-phenyl]-amide]: the IC50 on c-fms came to 0.81 nM; in assay [1] (Mus musculus, BMDM) it was 2.9 nM.

In the case of `CC1(C)CC=C(c2cc(C3=C[C@@]4(CO)C=C[C@@](CO)(C3)O4)ccc2NC(=O)c2nc(C#N)c[nH]2)CC1` [Example 3, 4-Cyano-1H-imidazole-2-carboxylic acid[4-(1,5-bis-hydroxymethyl-8-oxa-bicyclo[3.2.1]octa-2,6-dien-3-yl)-2-(4,4-dimethyl-cyclohex-1-enyl)-phenyl]-amide], the IC50 was determined as 0.65 nM on c-fms and 9.3 nM in assay [1] (Mus musculus, BMDM).

In the case of `CC1(C)CC=C(c2nc(C3CC(C)(C)S(=O)(=O)C(C)(C)C3)ccc2NC(=O)c2nc(C#N)c[nH]2)CC1` [Example 21, 4-Cyano-1H-imidazole-2-carboxylic acid[2-(4,4-dimethyl-cyclohex-1-enyl)-6-(2,2,6,6-tetramethyl-1,1-dioxo-hexahydro-1λ^6-thiopyran-4-yl)-pyridin-3-yl]-amide], the IC50 was found to be 8.9 nM at c-fms and 18 nM in assay [1] (Mus musculus, BMDM).
